Measurements taken from patent publication US8952024B2, “Herbicidal pyrimidone derivatives” (E I du Pont de Nemours and Company, priority 2009, dated 2015).

Tests used:
Format in all cases: in vivo
[1] = tested on: Surinam grass (Brachiaria decumbens); assay: Test B pre-/postemergence plant response
In short: (§1)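 Test compounds, formulated in a non-phytotoxic solvent mixture with surfactant, are applied to the soil surface (loam and sand blend) right after seeding, or sprayed over plants at the 1- to 4-leaf stage grown in peat moss/vermiculite medium. After 13 to 15 days under glasshouse conditions, each species is scored visually from 0 (no effect) to 100 (complete control) against controls.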

[2] = tested on: bermudagrass (Cynodon dactylon); assay: Test B pre-/postemergence plant response
In short: as §1

[3] = tested on: downy bromegrass (Bromus tectorum); assay: Test B pre-/postemergence plant response
In short: as §1

[4] = tested on: lambsquarters (Chenopodium album); assay: Test B pre-/postemergence plant response
In short: as §1

[5] = tested on: pigweed (Amaranthus retroflexus); assay: Test B pre-/postemergence plant response
In short: as §1

[6] = tested on: wheat (Triticum aestivum); assay: Test B pre-/postemergence plant response
In short: as §1

[7] = tested on: woolly cupgrass (Eriochloa villosa); assay: Test B pre-/postemergence plant response
In short: as §1

[8] = tested on: yellow nutsedge (Cyperus esculentus); assay: Test B pre-/postemergence plant response
In short: as §1

[9] = tested on: barnyardgrass (Echinochloa crus-galli); assay: Test B flooded paddy test; conditions: for Plant response rating, Barnyardgrass: Flood (flooded paddy test), 13 to 15 days
In short: (§2)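 Seedlings reaching 2 leaves are flooded 3 cm deep; test material is delivered to that water, which stays at the same depth. Plants remain in a greenhouse 13–15 days and are then scored by eye versus controls from 0 to 100.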

[10] = tested on: ducksalad (Heteranthera limosa); assay: Test B flooded paddy test; conditions: for Plant response rating, Ducksalad: Flood (flooded paddy test), 13 to 15 days
In short: as §2

rice (Oryza sativa) = assay: Test B flooded paddy test; conditions: for Plant response rating, Rice: Flood (flooded paddy test), 13 to 15 days
In short: as §2

[11] = tested on: umbrella sedge (Cyperus difformis); assay: Test B flooded paddy test; conditions: for Plant response rating, Sedge, Umbrella: Flood (flooded paddy test), 13 to 15 days
In short: as §2

[12] = 31 g ai/ha, postemergence, scale 0 to 100, 0 is no effect, 100 is complete control
[13] = 62 g ai/ha, postemergence, 0 is no effect, 100 is complete control, 13 to 15 days
[14] = Postemergence, 125 g ai/ha, visual rating after 13 to 15 days, scale 0 (no effect) to 100 (complete control)
[15] = Postemergence, 250 g ai/ha, scale 0 to 100 (0 no effect, 100 complete control)
[16] = 250 g ai/ha, flooded paddy test, visual rating on 0 to 100 scale (0 no effect, 100 complete control) after 13 to 15 days
[17] = 62 g ai/ha, scale of 0 to 100 where 0 is no effect and 100 is complete control
[18] = 125 g ai/ha, scale 0 to 100, 0 is no effect, 100 is complete control
[19] = Flood, 31 g ai/ha, scale 0 to 100 (0 no effect, 100 complete control)

SMILES: Cc1ccc(-c2ncc(C(=O)C3=C(O)CCCC3=O)c(=O)n2-c2ccccc2)cc1 [Compound 80]
- Plant response rating, Surinam Grass [1, 12]: 45
- Surinam Grass plant response rating (0 to 100 scale) [1, 13]: 45
- Plant response rating, Surinam Grass [1, 14]: 60
- Plant response rating, Surinam Grass [1, 15]: 65
- Plant response rating, Bermudagrass [2, 12]: 20
- Bermudagrass plant response rating (0 to 100 scale) [2, 13]: 40
- Plant response rating, Bermudagrass [2, 14]: 45
- Plant response rating, Bermudagrass [2, 15]: 55
- Plant response rating, Bromegrass, Downy [3, 12]: 45
- Bromegrass, Downy plant response rating (0 to 100 scale) [3, 13]: 60
- Plant response rating, Bromegrass, Downy [3, 14]: 60
- Plant response rating, Bromegrass, Downy [3, 15]: 80
- Plant response rating, Lambsquarters [4, 12]: 95
- Lambsquarters plant response rating (0 to 100 scale) [4, 13]: 95
- Plant response rating, Lambsquarters [4, 14]: 98
- Plant response rating, Lambsquarters [4, 15]: 100
- Plant response rating, Pigweed [5, 12]: 100
- Pigweed plant response rating (0 to 100 scale) [5, 13]: 100
- Plant response rating, Pigweed [5, 14]: 100
- Plant response rating, Pigweed [5, 15]: 100
- Plant response rating, Wheat [6, 12]: 5
- Wheat plant response rating (0 to 100 scale) [6, 13]: 10
- Plant response rating, Wheat [6, 14]: 20
- Plant response rating, Wheat [6, 15]: 35
- Plant response rating, Cupgrass, Woolly [7, 12]: 65
- Cupgrass, Woolly plant response rating (0 to 100 scale) [7, 13]: 70
- Plant response rating, Cupgrass, Woolly [7, 14]: 70
- Plant response rating, Cupgrass, Woolly [7, 15]: 75
- Plant response rating, Nutsedge, Yellow [8, 12]: 10
- Nutsedge, Yellow plant response rating (0 to 100 scale) [8, 13]: 15
- Plant response rating, Nutsedge, Yellow [8, 14]: 55
- Plant response rating, Nutsedge, Yellow [8, 15]: 75
- Plant response rating, Flood, Barnyardgrass [9, 16]: 30
- Plant response rating, Barnyardgrass [9, 17]: 20
- Plant response rating, Barnyardgrass [9, 18]: 25
- Barnyardgrass plant response rating [9, 19]: 15
- Plant response rating, Flood, Ducksalad [10, 16]: 30
- Plant response rating, Ducksalad [10, 17]: 20
- Plant response rating, Ducksalad [10, 18]: 30
- Ducksalad plant response rating [10, 19]: 0
- Plant response rating, Flood, Rice (rice (Oryza sativa); [16]): 15
- Plant response rating, Rice (rice (Oryza sativa); [17]): 0
- Plant response rating, Rice (rice (Oryza sativa); [18]): 0
- Rice plant response rating (rice (Oryza sativa); [19]): 0
- Plant response rating, Flood, Sedge, Umbrella [11, 16]: 40
- Plant response rating, Sedge, Umbrella [11, 17]: 20
- Plant response rating, Sedge, Umbrella [11, 18]: 30
- Sedge, Umbrella plant response rating [11, 19]: 0
